Reference: patent publication US20220187282A1, “CARDIOMYOCYTE PROLIFERATION” (The Council of the Queensland Institute of Medical Research, priority 2019, published 2022)
Like-named read-outs stand apart in the source and are kept apart here.

Assays:
Format in all cases: biochemical
kinases [1] = target: kinases (Homo sapiens, UniProt Q15375); conditions: EPHA7 FRET-Lantha SP; Test Conc(μM) 1
kinases [2] = target: kinases (Homo sapiens, UniProt Q7L7X3); conditions: TAOK1 FRET-Lantha SP; Test Conc(μM) 1
kinases [3] = target: kinases (Homo sapiens, UniProt Q15418); conditions: RPS6KA1 (RSK1) FRET-Z-Lyte SP; Test Conc(μM):ATP Conc(μM) 1:5
kinases [4] = target: kinases (Homo sapiens, UniProt P78362); conditions: SRPK2 FRET-Z-Lyte SP; Test Conc(μM):ATP Conc(μM) 1:25
kinases [5] = target: kinases (Homo sapiens, UniProt Q6DT37); conditions: CDC42 BPG FRET-Z-Lyte SP; Test Conc(μM):ATP Conc(μM) 1:5
kinases [6] = target: kinases (Homo sapiens, UniProt Q14012); conditions: CAMK1 (CaMK1) FRET-Adapta SP; Test Conc(μM):ATP Conc(μM) 1:10
kinases [7] = target: kinases (Homo sapiens, UniProt Q9BYP7); conditions: WNK3 FRET-Lantha SP; Test Conc(μM) 1
kinases [8] = target: kinases (Homo sapiens, UniProt P21709); conditions: EPHA1 FRET-Z-Lyte SP; Test Conc(μM):ATP Conc(μM) 1:25
kinases [9] = target: kinases (Homo sapiens, UniProt P49137); conditions: MAPKAPK2 FRET-Z-Lyte SP; Test Conc(μM):ATP Conc(μM) 1:5
kinases [10] = target: kinases (Homo sapiens, UniProt P36894); conditions: BMPR1A (ALK3) FRET-Lantha SP; Test Conc(μM) 1
kinases [11] = target: kinases (Homo sapiens, UniProt P10721); conditions: KIT *Mn* FRET-Z-Lyte SP
kinases [12] = target: kinases (Homo sapiens, UniProt Q9Y3S1); conditions: WNK2 FRET-Lantha SP; Test Conc(μM) 1
kinases [13] = target: kinases (Homo sapiens, UniProt P51955); conditions: NEK2 FRET-Z-Lyte SP; Test Conc(μM):ATP Conc(μM) 1:150
kinases [14] = target: kinases (Homo sapiens, UniProt O14936); conditions: CASK FRET-Lantha SP; Test Conc(μM) 1
kinases [15] = target: kinases (Homo sapiens, UniProt Q15139); conditions: PRKD1 (PKC mu) Z-Lyte SP; Test Conc(μM):ATP Conc(μM) 1:10
kinases [16] = target: kinases (Homo sapiens, UniProt O96013); conditions: PAK4 FRET-Z-Lyte SP; Test Conc(μM):ATP Conc(μM) 1:5
kinases [17] = target: kinases (Homo sapiens, UniProt Q9NRM7); conditions: LATS2 FRET-Lantha SP; Test Conc(μM) 1
kinases [18] = target: kinases (Homo sapiens, UniProt Q9NWZ3); conditions: IRAK4 *Mn* FRET-Z-Lyte SP; Test Conc(μM):ATP Conc(μM) 1:25
kinases [19] = target: kinases (Homo sapiens, UniProt P34947); conditions: GRK5 *Mn* FRET-Z-Lyte SP; Test Conc(μM):ATP Conc(μM) 1:5
kinases [20] = target: kinases (Homo sapiens, UniProt P48426); conditions: PIP4K2A FRET-Adapta SP; Test Conc(μM):ATP Conc(μM) 1:10
kinases [21] = target: kinases (Homo sapiens, UniProt P48729); conditions: CSNK1A1 FRET-Z-Lyte SP; Test Conc(μM):ATP Conc(μM) 1:5
kinases [22] = target: kinases (Homo sapiens, UniProt Q9H4B4); conditions: PLK3 FRET-Z-Lyte SP; Test Conc(μM):ATP Conc(μM) 1:50
kinases [23] = target: kinases (Homo sapiens, UniProt P29323); conditions: EPHB2 FRET-Z-Lyte SP; Test Conc(μM):ATP Conc(μM) 1:75
kinases [24] = target: kinases (Homo sapiens, UniProt P29320); conditions: EPHA3 FRET-Lantha SP; Test Conc(μM) 1
kinases [25] = target: kinases (Homo sapiens, UniProt P04629); conditions: NTRK1 (TRKA) FRET-Z-Lyte SP; Test Conc(μM):ATP Conc(μM) 1:400
kinases [26] = target: kinases (Homo sapiens, UniProt P51813); conditions: BMX FRET-Z-Lyte SP; Test Conc(μM):ATP Conc(μM) 1:100
kinases [27] = target: kinases (Homo sapiens, UniProt Q9UQM7); conditions: CAMK2A FRET-Z-Lyte SP; Test Conc(μM):ATP Conc(μM) 1:10
kinases [28] = target: kinases (Homo sapiens, UniProt P42336)
[29] = PIK3CA/PIK3R1 FRET-Adapta SP, Test Conc(μM):ATP Conc(μM) 1:25
[30] = PIK3CA/PIK3R3 FRET-Adapta SP, Test Conc(μM):ATP Conc(μM) 1:10

kinases (Homo sapiens, UniProt P42336), sequence (P42336 whole entry): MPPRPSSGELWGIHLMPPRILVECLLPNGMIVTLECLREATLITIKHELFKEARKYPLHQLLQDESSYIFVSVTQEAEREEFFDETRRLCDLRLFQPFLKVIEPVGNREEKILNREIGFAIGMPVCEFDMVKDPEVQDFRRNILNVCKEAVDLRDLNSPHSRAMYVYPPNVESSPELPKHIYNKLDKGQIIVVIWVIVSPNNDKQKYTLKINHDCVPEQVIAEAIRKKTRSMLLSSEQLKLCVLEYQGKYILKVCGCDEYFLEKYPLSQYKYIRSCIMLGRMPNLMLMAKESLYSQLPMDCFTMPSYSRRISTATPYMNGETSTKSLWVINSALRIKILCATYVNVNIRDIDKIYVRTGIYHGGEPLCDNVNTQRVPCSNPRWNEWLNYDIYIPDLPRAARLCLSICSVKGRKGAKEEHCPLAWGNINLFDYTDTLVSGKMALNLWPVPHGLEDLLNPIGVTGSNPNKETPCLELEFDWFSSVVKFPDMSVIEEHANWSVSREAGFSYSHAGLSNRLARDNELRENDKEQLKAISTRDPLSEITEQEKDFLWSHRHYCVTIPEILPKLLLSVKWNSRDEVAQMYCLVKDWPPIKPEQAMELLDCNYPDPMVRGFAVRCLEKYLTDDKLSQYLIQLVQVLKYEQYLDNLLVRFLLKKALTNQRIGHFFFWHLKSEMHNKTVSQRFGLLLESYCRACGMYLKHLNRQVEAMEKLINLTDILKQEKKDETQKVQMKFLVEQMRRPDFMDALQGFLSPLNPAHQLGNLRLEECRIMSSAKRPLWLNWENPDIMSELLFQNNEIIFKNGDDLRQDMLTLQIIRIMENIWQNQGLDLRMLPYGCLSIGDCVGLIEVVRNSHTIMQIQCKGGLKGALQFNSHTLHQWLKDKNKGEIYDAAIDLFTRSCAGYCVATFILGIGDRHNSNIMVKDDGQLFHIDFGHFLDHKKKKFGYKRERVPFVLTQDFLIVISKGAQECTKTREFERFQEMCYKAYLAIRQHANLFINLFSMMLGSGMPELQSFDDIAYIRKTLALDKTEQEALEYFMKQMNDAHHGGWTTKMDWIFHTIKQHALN
kinases (Homo sapiens, UniProt Q15418), sequence (Q15418 whole entry): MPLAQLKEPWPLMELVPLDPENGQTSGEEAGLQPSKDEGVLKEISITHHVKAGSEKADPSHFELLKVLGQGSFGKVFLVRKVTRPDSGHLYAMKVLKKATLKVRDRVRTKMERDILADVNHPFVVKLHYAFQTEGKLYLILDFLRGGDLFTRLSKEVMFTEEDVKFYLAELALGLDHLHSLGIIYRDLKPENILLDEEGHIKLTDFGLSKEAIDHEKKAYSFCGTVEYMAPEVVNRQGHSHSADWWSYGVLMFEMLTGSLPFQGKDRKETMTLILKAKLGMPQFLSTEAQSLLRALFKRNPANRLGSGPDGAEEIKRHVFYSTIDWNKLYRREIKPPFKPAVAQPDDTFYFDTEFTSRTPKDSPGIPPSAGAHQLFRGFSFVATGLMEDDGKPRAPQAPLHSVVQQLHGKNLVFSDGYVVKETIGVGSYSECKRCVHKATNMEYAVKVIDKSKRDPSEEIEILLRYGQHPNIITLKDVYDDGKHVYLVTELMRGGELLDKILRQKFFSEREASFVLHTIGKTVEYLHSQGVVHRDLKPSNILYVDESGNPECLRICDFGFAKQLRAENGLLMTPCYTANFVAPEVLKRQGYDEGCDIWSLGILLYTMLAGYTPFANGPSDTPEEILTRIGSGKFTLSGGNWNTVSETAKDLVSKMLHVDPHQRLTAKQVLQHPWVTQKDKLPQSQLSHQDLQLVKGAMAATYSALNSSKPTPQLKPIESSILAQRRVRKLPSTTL
kinases (Homo sapiens, UniProt P48729), sequence (P48729 whole entry): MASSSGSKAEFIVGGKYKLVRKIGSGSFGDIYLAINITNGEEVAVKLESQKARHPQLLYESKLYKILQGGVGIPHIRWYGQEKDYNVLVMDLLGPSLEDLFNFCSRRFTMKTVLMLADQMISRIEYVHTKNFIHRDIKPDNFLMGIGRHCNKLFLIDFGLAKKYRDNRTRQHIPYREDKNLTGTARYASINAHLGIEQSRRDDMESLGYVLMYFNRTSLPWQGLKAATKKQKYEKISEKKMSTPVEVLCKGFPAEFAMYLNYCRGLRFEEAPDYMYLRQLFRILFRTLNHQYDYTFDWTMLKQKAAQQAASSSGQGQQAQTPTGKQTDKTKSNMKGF
kinases (Homo sapiens, UniProt Q14012), sequence (Q14012 whole entry): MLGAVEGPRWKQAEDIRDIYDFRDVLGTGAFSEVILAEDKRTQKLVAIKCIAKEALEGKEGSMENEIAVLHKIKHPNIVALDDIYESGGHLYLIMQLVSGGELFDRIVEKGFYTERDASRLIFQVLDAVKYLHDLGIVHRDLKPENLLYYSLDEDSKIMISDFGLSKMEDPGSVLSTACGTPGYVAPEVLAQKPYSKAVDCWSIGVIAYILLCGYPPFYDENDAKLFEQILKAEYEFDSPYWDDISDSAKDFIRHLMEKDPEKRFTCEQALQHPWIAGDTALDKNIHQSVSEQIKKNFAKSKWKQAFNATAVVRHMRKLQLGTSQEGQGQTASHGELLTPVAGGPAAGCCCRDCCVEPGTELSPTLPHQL
kinases (Homo sapiens, UniProt Q9Y3S1), sequence (Q9Y3S1 whole entry): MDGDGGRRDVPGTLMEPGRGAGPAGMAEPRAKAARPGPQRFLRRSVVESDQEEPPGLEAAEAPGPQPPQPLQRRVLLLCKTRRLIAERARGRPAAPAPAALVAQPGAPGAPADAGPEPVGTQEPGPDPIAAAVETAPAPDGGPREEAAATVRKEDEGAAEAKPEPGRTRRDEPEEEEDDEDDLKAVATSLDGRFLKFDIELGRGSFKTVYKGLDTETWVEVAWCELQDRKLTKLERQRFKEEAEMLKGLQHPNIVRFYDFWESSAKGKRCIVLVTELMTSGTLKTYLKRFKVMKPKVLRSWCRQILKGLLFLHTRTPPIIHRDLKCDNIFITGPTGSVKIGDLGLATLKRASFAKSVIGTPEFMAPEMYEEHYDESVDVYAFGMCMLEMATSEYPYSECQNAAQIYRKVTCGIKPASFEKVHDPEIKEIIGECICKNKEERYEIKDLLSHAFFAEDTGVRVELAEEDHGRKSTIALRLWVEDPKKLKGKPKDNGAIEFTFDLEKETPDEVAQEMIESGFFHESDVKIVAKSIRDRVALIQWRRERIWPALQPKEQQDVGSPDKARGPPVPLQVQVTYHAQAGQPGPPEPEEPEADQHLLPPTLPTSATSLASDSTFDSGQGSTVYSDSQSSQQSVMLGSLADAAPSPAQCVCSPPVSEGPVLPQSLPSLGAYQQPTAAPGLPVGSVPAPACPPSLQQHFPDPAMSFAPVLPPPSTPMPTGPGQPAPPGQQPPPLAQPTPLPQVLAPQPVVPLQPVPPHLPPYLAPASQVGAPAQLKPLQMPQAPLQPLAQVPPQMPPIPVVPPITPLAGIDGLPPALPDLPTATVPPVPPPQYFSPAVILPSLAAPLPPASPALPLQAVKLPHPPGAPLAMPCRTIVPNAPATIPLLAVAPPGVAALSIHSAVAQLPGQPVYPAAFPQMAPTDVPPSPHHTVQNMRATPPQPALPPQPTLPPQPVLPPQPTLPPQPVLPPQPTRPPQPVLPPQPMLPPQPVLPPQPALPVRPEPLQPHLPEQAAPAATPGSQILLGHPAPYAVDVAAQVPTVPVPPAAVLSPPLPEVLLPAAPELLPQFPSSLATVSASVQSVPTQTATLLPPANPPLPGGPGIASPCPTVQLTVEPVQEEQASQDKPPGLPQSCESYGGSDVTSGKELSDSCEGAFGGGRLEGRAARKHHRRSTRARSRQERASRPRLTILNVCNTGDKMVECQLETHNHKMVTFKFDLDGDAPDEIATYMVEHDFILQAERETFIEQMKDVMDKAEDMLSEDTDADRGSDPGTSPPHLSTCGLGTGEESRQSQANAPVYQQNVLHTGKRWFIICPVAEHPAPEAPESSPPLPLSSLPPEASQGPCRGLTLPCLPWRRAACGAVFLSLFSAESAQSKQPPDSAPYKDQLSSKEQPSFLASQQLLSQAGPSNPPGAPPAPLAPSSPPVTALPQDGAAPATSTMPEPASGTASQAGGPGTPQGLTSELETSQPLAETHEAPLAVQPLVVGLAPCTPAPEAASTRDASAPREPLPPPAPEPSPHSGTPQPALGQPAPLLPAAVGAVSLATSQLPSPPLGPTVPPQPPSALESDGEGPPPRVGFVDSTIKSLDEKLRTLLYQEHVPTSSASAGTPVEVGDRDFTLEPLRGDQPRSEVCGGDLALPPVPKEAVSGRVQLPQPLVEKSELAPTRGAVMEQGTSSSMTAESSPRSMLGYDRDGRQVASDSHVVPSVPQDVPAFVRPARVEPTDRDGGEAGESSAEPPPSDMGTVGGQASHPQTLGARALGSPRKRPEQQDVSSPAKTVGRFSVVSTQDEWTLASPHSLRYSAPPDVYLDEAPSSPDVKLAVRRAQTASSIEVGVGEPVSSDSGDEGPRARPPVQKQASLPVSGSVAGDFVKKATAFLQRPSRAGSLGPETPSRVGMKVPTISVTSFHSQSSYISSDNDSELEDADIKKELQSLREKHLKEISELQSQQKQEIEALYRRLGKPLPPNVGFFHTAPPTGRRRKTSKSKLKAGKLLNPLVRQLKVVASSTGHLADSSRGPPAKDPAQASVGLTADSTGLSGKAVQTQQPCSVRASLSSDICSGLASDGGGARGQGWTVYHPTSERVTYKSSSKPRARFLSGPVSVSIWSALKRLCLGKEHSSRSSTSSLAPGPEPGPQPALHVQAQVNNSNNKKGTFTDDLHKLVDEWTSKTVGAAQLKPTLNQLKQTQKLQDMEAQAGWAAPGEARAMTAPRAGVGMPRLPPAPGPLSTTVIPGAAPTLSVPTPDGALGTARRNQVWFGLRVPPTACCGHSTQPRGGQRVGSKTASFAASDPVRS

Compound | Mean Inhib (%) (kinases [1]) | Mean Inhib (%) (kinases [2]) | Mean Inhib (%) (kinases [3]) | Mean Inhib (%) (kinases [4]) | Mean Inhib (%) (kinases [5]) | Mean Inhib (%) (kinases [6]) | Mean Inhib (%) (kinases [7]) | Mean Inhib (%) (kinases [8]) | Mean Inhib (%) (kinases [9]) | Mean Inhib (%) (kinases [10]) | Mean Inhib (%) (kinases [12]) | Mean Inhib (%) (kinases [13]) | Mean Inhib (%) (kinases [14]) | Mean Inhib (%) (kinases [15]) | Mean Inhib (%) (kinases [16]) | Mean Inhib (%) (kinases [17]) | Mean Inhib (%) (kinases [18]) | Mean Inhib (%) (kinases [19]) | Mean Inhib (%) (kinases [20]) | Mean Inhib (%) (kinases [21]) | other results
Cc1ccc(NC(=O)c2ccnc(N3CCOCC3)c2)cc1Nc1ccnc(N2CC(C)OC(C)C2)n1 (stereo not shown) [compound 3] | 6.5% | −6.0% | 14.8% | −1.9% | 2.2% | −9.9% | 5.3% | 6.7% | −2.1% | −1.5% | 9.6% | −0.8% | 16.8% | 6.5% | 0.9% | 0.5% | 12.7% | 4.7% | 2.2% | 4.2% | Mean Inhib (%) (kinases [11]; Test Conc(μM):ATP Conc(μM) 1:300): 0.0%; Mean Inhib (%) (kinases [22]): 5.8%; Mean Inhib (%) (kinases [23]): 6.1%; Mean Inhib (%) (kinases [24]): 4.8%; Mean Inhib (%) (kinases [25]): 30.7%; Mean Inhib (%) (kinases [26]): 7.2%; Mean Inhib (%) (kinases [27]): 1.0%; Mean Inhib (%) (kinases [28]; [29]): 8.4%; Mean Inhib (%) (kinases [28]; [30]): −3.0%
Cc1cc(Oc2ccnc(Nc3ccc(S(N)(=O)=O)cc3)c2)c(-c2ccccn2)nc1C [compound 65] | 10.4% | 33.0% | 5.3% | 1.9% | −5.0% | 7.3% | −2.5% | 55.3% | 9.2% | 83.6% | 5.8% | 12.8% | 12.1% | 11.3% | 7.4% | 4.9% | 6.8% | 4.6% | −8.6% | 4.1% | Mean Inhib (%) (kinases [11]; Test Conc(μM):ATP Conc(μM) 0.25): 8.8%; Mean Inhib (%) (kinases [22]): −4.9%; Mean Inhib (%) (kinases [23]): 58.7%; Mean Inhib (%) (kinases [24]): 27.9%; Mean Inhib (%) (kinases [25]): 20.1%; Mean Inhib (%) (kinases [26]): 18.7%; Mean Inhib (%) (kinases [27]): −3.3%; Mean Inhib (%) (kinases [28]; [29]): 0.0%; Mean Inhib (%) (kinases [28]; [30]): 3.9%
